pIC50: −log10 of the molar value.
What was measured:
NCI-H522 = assay: Growth inhibition of human NCI-H522 cells after 48 hrs by sulforhodamine B assay; format: functional; settings: NCI-H522, 48 h
UACC-257 = assay: Growth inhibition of human UACC257 cells after 48 hrs by sulforhodamine B assay; format: functional; settings: UACC-257, 48 h
PC-3 = assay: Growth inhibition of human PC3 cells assessed as cell growth at 10 uM after 48 hrs by sulforhodamine B assay; format: functional; settings: PC-3, 48 h, read-out: Activity
ACHN = assay: Growth inhibition of human ACHN cells after 48 hrs by sulforhodamine B assay; format: functional
CCRF-CEM = assay: Growth inhibition of human CCRF-CEM cells after 48 hrs by sulforhodamine B assay; format: functional
U-251 [1] = assay: Growth inhibition of human U251 cells assessed as cell growth at 10 uM after 48 hrs by sulforhodamine B assay; format: functional; settings: U-251, 48 h, read-out: Activity
A549 = assay: Growth inhibition of human A549/ATCC cells assessed as cell growth at 10 uM after 48 hrs by sulforhodamine B assay; format: functional; settings: A549, 48 h, read-out: Activity
HOP-92 = assay: Growth inhibition of human HOP92 cells assessed as cell growth at 10 uM after 48 hrs by sulforhodamine B assay; format: functional; settings: HOP-92, 48 h, read-out: Activity
A498 = assay: Growth inhibition of human A498 cells after 48 hrs by sulforhodamine B assay; format: functional, cell-based; settings: A498, 48 h
SN12C = assay: Growth inhibition of human SN12C cells assessed as cell growth at 10 uM after 48 hrs by sulforhodamine B assay; format: functional; settings: read-out: Activity
OVCAR-4 = assay: Growth inhibition of human OVCAR4 cells after 48 hrs by sulforhodamine B assay; format: functional; settings: OVCAR-4, 48 h
NCI-H23 [2] = assay: Growth inhibition of human NCI-H23 cells assessed as cell growth at 10 uM after 48 hrs by sulforhodamine B assay; format: functional; settings: NCI-H23, 48 h, read-out: Activity
SK-MEL-28 = assay: Growth inhibition of human SK-MEL-28 cells assessed as cell growth at 10 uM after 48 hrs by sulforhodamine B assay; format: functional; settings: SK-MEL-28, 48 h, read-out: Activity
SW-620 [3] = assay: Growth inhibition of human SW620 cells after 48 hrs by sulforhodamine B assay; format: functional; settings: SW-620, 48 h
HT-29 [4] = assay: Growth inhibition of human HT-29 cells after 48 hrs by sulforhodamine B assay; format: functional; settings: HT-29, 48 h
SR = assay: Growth inhibition of human SR cells after 48 hrs by sulforhodamine B assay; format: functional
MCF7 = assay: Growth inhibition of human MCF7 cells after 48 hrs by sulforhodamine B assay; format: functional; settings: MCF7, 48 h
KM12 [5] = assay: Growth inhibition of human KM12 cells assessed as cell growth at 10 uM after 48 hrs by sulforhodamine B assay; format: functional; settings: KM12, 48 h, read-out: Activity
CAKI-1 [6] = assay: Growth inhibition of human CAKI-1 cells after 48 hrs by sulforhodamine B assay; format: functional; settings: CAKI-1, 48 h
KM12 [7] = assay: Growth inhibition of human KM12 cells after 48 hrs by sulforhodamine B assay; format: functional, cell-based; settings: KM12, 48 h
SK-MEL-5 [8] = assay: Growth inhibition of human SK-MEL-5 cells assessed as cell growth at 10 uM after 48 hrs by sulforhodamine B assay; format: functional; settings: SK-MEL-5, 48 h, read-out: Activity
Malme-3M = assay: Growth inhibition of human MALME-3M cells assessed as cell growth at 10 uM after 48 hrs by sulforhodamine B assay; format: functional; settings: read-out: Activity
HT-29 [9] = assay: Growth inhibition of human HT-29 cells assessed as cell growth at 10 uM after 48 hrs by sulforhodamine B assay; format: functional; settings: HT-29, 48 h, read-out: Activity
NCI-H23 [10] = assay: Growth inhibition of human NCI-H23 cells after 48 hrs by sulforhodamine B assay; format: functional; settings: NCI-H23, 48 h
OVCAR-5 = assay: Growth inhibition of human OVCAR5 cells after 48 hrs by sulforhodamine B assay; format: functional; settings: OVCAR-5, 48 h
RXF 393 = assay: Growth inhibition of human RXF393 cells after 48 hrs by sulforhodamine B assay; format: functional; settings: RXF 393, 48 h
CAKI-1 [11] = assay: Growth inhibition of human CAKI-1 cells assessed as cell growth at 10 uM after 48 hrs by sulforhodamine B assay; format: functional; settings: CAKI-1, 48 h, read-out: Activity
SK-MEL-5 [12] = assay: Growth inhibition of human SK-MEL-5 cells after 48 hrs by sulforhodamine B assay; format: functional; settings: SK-MEL-5, 48 h
OVCAR-8 = assay: Growth inhibition of human OVCAR8 cells after 48 hrs by sulforhodamine B assay; format: functional; settings: OVCAR-8, 48 h
U-251 [13] = assay: Growth inhibition of human U251 cells after 48 hrs by sulforhodamine B assay; format: functional; settings: U-251, 48 h
BT-549 = assay: Growth inhibition of human BT549 cells assessed as cell growth at 10 uM after 48 hrs by sulforhodamine B assay; format: functional; settings: BT-549, 48 h, read-out: Activity
TK-10 = assay: Growth inhibition of human TK10 cells assessed as cell growth at 10 uM after 48 hrs by sulforhodamine B assay; format: functional; settings: TK-10, 48 h, read-out: Activity
RPMI-8226 = assay: Growth inhibition of human RPMI8226 cells assessed as cell growth at 10 uM after 48 hrs by sulforhodamine B assay; format: functional; settings: RPMI-8226, 48 h, read-out: Activity
SW-620 [14] = assay: Growth inhibition of human SW620 cells assessed as cell growth at 10 uM after 48 hrs by sulforhodamine B assay; format: functional; settings: SW-620, 48 h, read-out: Activity
HOP-62 = assay: Growth inhibition of human HOP62 cells assessed as cell growth at 10 uM after 48 hrs by sulforhodamine B assay; format: functional; settings: HOP-62, 48 h, read-out: Activity
[15] = read-out: LC50 (the source's name)

## O=C(Nc1cccc(-n2cc(-c3ccncc3)c(-c3ccc(Cl)c(O)c3)n2)c1)Nc1cc(C(F)(F)F)cc(C(F)(F)F)c1
NCI-H522
  GI50: 724 nM
  LC50 (concentration killing 50% of cells): 12800 nM
  TGI: 2510 nM
UACC-257
  GI50: 965 nM
  TGI: 2550 nM
UACC-257; [15]
  CC50: 10600 nM
PC-3
  growth at 10 µM: -32.4%
ACHN
  GI50: 624 nM
  TGI: 5270 nM
ACHN; [15]
  CC50: 17300 nM
CCRF-CEM
  GI50: 789 nM
  LC50: > 50000 nM
  TGI: 6780 nM
U-251 [1]
  growth at 10 µM: -83.8%
A549
  growth at 10 µM: -32.5%
HOP-92
  growth at 10 µM: -45.8%
A498
  GI50: 792 nM
  pIC50: 6.10
  TGI: 4330 nM
A498; [15]
  CC50: 16000 nM
SN12C
  growth at 10 µM: -36.1%
OVCAR-4
  GI50: 849 nM
  LC50 (concentration killing 50% of cells): 23900 nM
  TGI: 5010 nM
NCI-H23 [2]
  growth at 10 µM: -7.93%
SK-MEL-28
  growth at 10 µM: -62.4%
SW-620 [3]
  GI50: 1300 nM
  TGI: 5110 nM
SW-620 [3]; [15]
  CC50: 23400 nM
HT-29 [4]
  GI50: 746 nM
  TGI: 1870 nM
HT-29 [4]; [15]
  CC50: 4670 nM
SR
  GI50: 922 nM
  TGI: 3660 nM
SR; [15]
  CC50: > 50000 nM
MCF7
  GI50: 540 nM
  LC50: 31500 nM
  TGI: 5790 nM
KM12 [5]
  growth at 10 µM: -50.3%
CAKI-1 [6]
  GI50: 1010 nM
  TGI: 4420 nM
CAKI-1 [6]; [15]
  CC50: 26500 nM
KM12 [7]
  GI50: 506 nM
  pIC50: 6.29
  TGI: 1430 nM
KM12 [7]; [15]
  CC50: 4060 nM
SK-MEL-5 [8]
  growth at 10 µM: -94.7%
Malme-3M
  growth at 10 µM: -23%
HT-29 [9]
  growth at 10 µM: -56%
NCI-H23 [10]
  GI50: 1020 nM
  LC50: 18200 nM
  TGI: 3270 nM
OVCAR-5
  GI50: 875 nM
  LC50 (concentration killing 50% of cells): 4700 nM
  TGI: 2030 nM
RXF 393
  GI50: 937 nM
  LC50 (concentration killing 50% of cells): 10700 nM
  TGI: 2490 nM
CAKI-1 [11]
  growth at 10 µM: 8.94%
SK-MEL-5 [12]
  GI50: 600 nM
  LC50 (concentration killing 50% of cells): 2620 nM
  TGI: 1250 nM
OVCAR-8
  GI50: 563 nM
  TGI: 5920 nM
OVCAR-8; [15]
  CC50: 43700 nM
U-251 [13]
  GI50: 463 nM
  LC50 (concentration killing 50% of cells): 2800 nM
  TGI: 1170 nM
BT-549
  growth at 10 µM: -36%
TK-10
  growth at 10 µM: -24.6%
RPMI-8226
  growth at 10 µM: -10.9%
SW-620 [14]
  growth at 10 µM: 3.32%
HOP-62
  growth at 10 µM: -86.1%

— ChEMBL document CHEMBL2440076, “New triarylpyrazoles as broad-spectrum anticancer agents: design, synthesis, and biological evaluation” (Eur J Med Chem, 2013)
